Measurements as given in patent US12258329B2 (Merck Sharp & Dohme LLC, priority 2018, dated 2025).
Read-outs that look alike come from different tables or passages of the source.

Test system: infected PBMCs (VSV-G pseudotyped HIV virus VSV-G/pNLG1-P2A-ΔEnv)
Assay: cells
Format: cell-based, human
Details: read-out: TACK EC50

Molecule: Cc1cc(C#N)cc(C)c1Oc1c(C(F)(F)C(F)F)ncn(Cc2c(C)nc(CCCO)[nH]c2=O)c1=O [Example 50, 4-((1-((2-(3-hydroxypropyl)-4-methyl-6-oxo-1,6-dihydropyrimidin-5-yl)methyl)-6-oxo-4-(1,1,2,2-tetrafluoroethyl)-1,6-dihydropyrimidin-5-yl)oxy)-3,5-dimethylbenzonitrile]
- EC50 (Homo sapiens, PBMC): 250 nM

Molecule: Cc1nc(C)c(Cn2cnc(C(C)F)c(Oc3cc(Cl)cc(C#N)c3F)c2=O)c(=O)[nH]1 (single isomer, unassigned) [Example 30]
- EC50 (Homo sapiens, PBMC): 206 nM

Molecule: Cc1c(C#N)cc(C(F)F)cc1Oc1c(C(F)(F)C(F)F)ncn(Cc2cnc(N)[nH]c2=O)c1=O [Example 57, 3-((1-((2-amino-6-oxo-1,6-dihydropyrimidin-5-yl)methyl)-6-oxo-4-(1,1,2,2-tetrafluoroethyl)-1,6-dihydropyrimidin-5-yl)oxy)-5-(difluoromethyl)-2-methylbenzonitrile]
- EC50 (Homo sapiens, PBMC): 493 nM

Molecule: Cc1nc(C)c(Cn2cnc(C(F)(F)C(F)F)c(Oc3cc(Br)cc(C#N)c3)c2=O)c(=O)[nH]1 [Example 7, 3-bromo-5-((1-((2,4-dimethyl-6-oxo-1,6-dihydropyrimidin-5-y1)methyl)-6-oxo-4-(1,1,2,2-tetrafluoroethyl)-1,6-dihydropyrimidin-5-yl)oxy)benzonitrile]
- EC50 (Homo sapiens, PBMC): 353 nM

Molecule: (S) or (R)-3,5-dichloro-4-((1-((2,4- dimethyl-6-oxo-1,6-dihydropyrimidin- 5-y1)methyl)-4-(1-fluoroethyl)-6-oxo- 1,6-dihydropyrimidin-5-yl)oxy) benzonitrile [Example 17]
- EC50: 282 nM

Molecule: Cc1nc(N)c(Cn2cnc(C(F)(F)C(F)(F)F)c(Oc3cc(Cl)cc(C#N)c3F)c2=O)c(=O)[nH]1 [Example 38, 3-((1-((4-amino-2-methyl-6-oxo-1,6-dihydropyrimidin-5-yl)methyl)-6-oxo-4-(perfluoroethyl)-1,6-dihydropyrimidin-5-yl)oxy)-5-chloro-2-fluorobenzonitrile]
- EC50 (Homo sapiens, PBMC): 481 nM

Molecule: Cc1nc(C)c(Cn2cnc(C(F)(F)C(F)(F)F)c(Oc3c(C)cc(C#N)cc3Cl)c2=O)c(=O)[nH]1 [Example 95, 3-chloro-4-((1-((2,4-dimethyl-6-oxo-1,6-dihydropyrimidin-5-yl)methyl)-6-oxo-4-(perfluoroethyl)-1,6-dihydropyrimidin-5-yl)oxy)-5-methylbenzonitrile]
- EC50 (Homo sapiens, PBMC): 179 nM

Molecule: COc1c(C#N)cc(C(F)F)cc1Oc1c(C(C)F)ncn(Cc2c(C)nc(C)[nH]c2=O)c1=O (single isomer, unassigned) [Example 36]
- EC50: 72.3 nM

Molecule: Cc1nc(C)c(Cn2cnc(C(F)(F)C(F)(F)F)c(Oc3cc(C(F)F)cc(C#N)c3C)c2=O)c(=O)[nH]1 [Example 83]
- EC50 (Homo sapiens, PBMC): 252 nM

Molecule: CCc1nc(C)[nH]c(=O)c1Cn1cnc(C(F)(F)C(F)F)c(Oc2cc(C(F)F)cc(C#N)c2C)c1=O [Example 61, 5-(difluoromethyl)-3-((1-((4-ethyl-2-methyl-6-oxo-1,6-dihydropyrimidin-5-yl)methyl)-6-oxo-4-(1,1,2,2-tetrafluoroethyl)-1,6-dihydropyrimidin-5-yl)oxy)-2-methylbenzonitrile]
- EC50 (Homo sapiens, PBMC): 485 nM

Molecule: Cc1nc(C)c(Cn2cnc(C(F)(F)C(F)F)c(Oc3cc(C(F)(F)F)cc(C#N)c3Cl)c2=O)c(=O)[nH]1 [Example 94, 2-chloro-3-((1-((2,4-dimethyl-6-oxo-1,6-dihydropyrimidin-5-yl)methyl)-6-oxo-4-(1,1,2,2-tetrafluoroethyl)-1,6-dihydropyrimidin-5-yl)oxy)-5-(trifluoromethyl)benzonitrile]
- EC50 (Homo sapiens, PBMC): 492 nM

Molecule: Cc1ncc(Cn2cnc(C(F)(F)C(F)F)c(Oc3cc(C#N)cc(C(F)F)c3)c2=O)c(=O)[nH]1 [Example 2, 3-(difluoromethyl)-5-((1-((2-methyl-6-oxo-1,6-dihydropyrimidin-5-yl)methyl)-6-oxo-4-(1,1,2,2-tetrafluoroethyl)-1,6-dihydropyrimidin-5-yl)oxy)benzonitrile]
- EC50 (Homo sapiens, PBMC): 411 nM

Molecule: Cc1nc(C)c(Cn2cnc(C(C)(F)F)c(Oc3c(Cl)cc(C#N)cc3Cl)c2=O)c(=O)[nH]1 [Example 13, 3,5-dichloro-4-((4-(1,1-difluoroethyl)-1-((2,4-dimethyl-6-oxo-1,6-dihydropyrimidin-5-yl)methyl)-6-oxo-1,6-dihydropyrimidin-5-yl)oxy) benzonitrile]
- EC50 (Homo sapiens, PBMC): 395 nM

Molecule: Cc1nc(C)c(Cn2cnc(C(F)(F)C(F)(F)F)c(Oc3cc(Cl)cc(C#N)c3Cl)c2=O)c(=O)[nH]1 [Example 80, 2,5-dichloro-3-((1-((2,4-dimethyl-6-oxo-1,6-dihydropyrimidin-5-yl)methyl)-6-oxo-4-(perfluoroethyl)-1,6-dihydropyrimidin-5-yl)oxy)benzonitrile]
- EC50 (Homo sapiens, PBMC): 340 nM

Molecule: Cc1nc(C)c(Cn2cnc(C(F)(F)C(F)(F)F)c(Oc3cc(Cl)cc(C#N)c3C)c2=O)c(=O)[nH]1 [Example 72, 5-chloro-3-((1-((2,4-dimethyl-6-oxo-1,6-dihydropyrimidin-5-yl)methyl)-6-oxo-4-(perfluoroethyl)-1,6-dihydro-pyrimidin-5-yl)oxy)-2-methylbenzonitrile]
- EC50 (Homo sapiens, PBMC): 377 nM

Molecule: Cc1nc(C)c(Cn2cnc(C(F)(F)F)c(Oc3cc(Cl)cc(C#N)c3Cl)c2=O)c(=O)[nH]1 [Example 90, 2,5-dichloro-3-((1-((2,4-dimethyl-6-oxo-1,6-dihydropyrimidin-5-yl)methyl)-6-oxo-4-(trifluoromethyl)-1,6-dihydropyrimidin-5-yl)oxy) benzonitrile]
- EC50 (Homo sapiens, PBMC): 489 nM

Molecule: CCc1nc(C)[nH]c(=O)c1Cn1cnc(C(F)(F)C(F)(F)F)c(Oc2cc(C(F)F)cc(C#N)c2C)c1=O [Example 63, 5-(difluoromethyl)-3-((1-((4-ethyl-2-methyl-6-oxo-1,6-dihydropyrimidin-5-yl)methyl)-6-oxo-4-(perfluoroethyl)-1,6-dihydropyrimidin-5-yl)oxy)-2-methylbenzonitrile]
- EC50 (Homo sapiens, PBMC): 276 nM

Molecule: Cc1nc(N)c(Cn2cnc(C(F)(F)C(F)F)c(Oc3cc(Cl)cc(C#N)c3F)c2=O)c(=O)[nH]1 [Example 39, 3-((1-((4-amino-2-methyl-6-oxo-1,6-dihydropyrimidin-5-yl)methyl)-6-oxo-4-(1,1,2,2-tetrafluoroethyl)-1,6-dihydropyrimidin-5-yl)oxy)-5-chloro-2-fluorobenzonitrile]
- EC50 (Homo sapiens, PBMC): 265 nM

Molecule: Cc1nc(C)c(Cn2cnc(C(C)F)c(Oc3cc(C(F)F)cc(C#N)c3F)c2=O)c(=O)[nH]1 (single isomer, unassigned) [Example 33, (R) or (S)-5-(difluoromethyl)-3-((1-((2,4-dimethyl-6-oxo-1,6-dihydropyrimidin-5-yl)methyl)-4-(1-fluoroethyl)-6-oxo-1,6-dihydropyrimidin-5-yl)oxy)-2-fluorobenzonitrile]
- EC50: 208 nM

Molecule: Cc1c(C#N)cc(C(F)F)cc1Oc1c(C(F)(F)C(F)F)ncn(Cc2cnc(-c3cnn(C)c3)[nH]c2=O)c1=O [Example 47, 5-(difluoromethyl)-2-methyl-3-((1-((2-(1-methyl-1H-pyrazol-4-yl)-6-oxo-1,6-dihydropyrimidin-5-yl)methyl)-6-oxo-4-(1,1,2,2-tetrafluoroethyl)-1,6-dihydropyrimidin-5-yl)oxy)benzonitrile]
- EC50 (Homo sapiens, PBMC): 394 nM

Molecule: Cc1nc(COc2ncccn2)[nH]c(=O)c1Cn1cnc(C(C)(F)F)c(Oc2cc(C(F)F)cc(C#N)c2C)c1=O [Example 25, 3-((4-(1,1-difluoroethyl)-1-((4-methyl-6-oxo-2-((pyrimidin-2-yloxy)methyl)-1,6-dihydropyrimidin-5-yl)methyl)-6-oxo-1,6-dihydropyrimidin-5-yl)oxy)-5-(difluoromethyl)-2-methylbenzonitrile]
- EC50 (Homo sapiens, PBMC): 353 nM

Molecule: Cc1nc(C)c(Cn2cnc(C(F)(F)C(F)F)c(Oc3c(C)cc(C#N)cc3C(F)F)c2=O)c(=O)[nH]1 [Example 20, 3-(difluoromethyl)-4-((1-((2,4-dimethyl-6-oxo-1,6-dihydropyrimidin-5-yl)methyl)-6-oxo-4-(1,1,2,2-tetrafluoroethyl)-1,6-dihydropyrimidin-5-y1)oxy)-5-methylbenzonitrile]
- EC50 (Homo sapiens, PBMC): 365 nM

Molecule: Cc1nc(CF)c(Cn2cnc(C(F)(F)C(F)(F)F)c(Oc3cc(C(F)F)cc(C#N)c3C)c2=O)c(=O)[nH]1 [Example 64, 5-(difluoromethyl)-3-((1-((4-(fluoromethyl)-2-methyl-6-oxo-1,6-dihydropyrimidin-5-yl)methyl)-6-oxo-4-(perfluoroethyl)-1,6-dihydropyrimidin-5-yl)oxy)-2-methylbenzonitrile]
- EC50 (Homo sapiens, PBMC): 162 nM

Molecule: CCc1cc(C#N)c(F)c(Oc2c(C(F)(F)C(F)F)ncn(Cc3c(C)nc(C)[nH]c3=O)c2=O)c1 [Example 42, 3-((1-((2,4-dimethyl-6-oxo-1,6-dihydropyrimidin-5-yl)methyl)-6-oxo-4-(1,1,2,2-tetrafluoroethyl)-1,6-dihydropyrimidin-5-yl)oxy)-5-ethyl-2-fluorobenzonitrile]
- EC50 (Homo sapiens, PBMC): 308 nM

Molecule: Cc1nc(C)c(Cn2cnc(C(F)(F)C(F)F)c(Oc3cc(C(F)F)cc(C#N)c3C)c2=O)c(=O)[nH]1 [Example 66, 5-(difluoromethyl)-3-((1-((2,4-dimethyl-6-oxo-1,6-dihydropyrimidin-5-yl)methyl)-6-oxo-4-(1,1,2,2-tetrafluoroethyl)-1,6-dihydropyrimidin-5-yl)oxy)-2-methylbenzonitrile]
- EC50 (Homo sapiens, PBMC): 262 nM

Molecule: Cc1nc(C)c(Cn2cnc(C(C)(F)F)c(Oc3cc(C#N)cc(C(F)F)c3)c2=O)c(=O)[nH]1 [Example 23, 3-((4-(1,1-difluoroethyl)-1-((2,4-dimethyl-6-oxo-1,6-dihydropyrimidin-5-yl)methyl)-6-oxo-1,6-dihydropyrimidin-5-yl)oxy)-5-(difluoromethyl)benzonitrile]
- EC50 (Homo sapiens, PBMC): 429 nM

Molecule: Cc1nc(C)c(Cn2cnc(C(F)(F)C(F)(F)F)c(Oc3cc(Br)cc(C#N)c3Cl)c2=O)c(=O)[nH]1 [Example 82, 5-bromo-2-chloro-3-((1-((2,4-dimethyl-6-oxo-1,6-dihydro-pyrimidin-5-yl)methyl)-6-oxo-4-(perfluoroethyl)-1,6-dihydro-pyrimidin-5-yl)oxy)benzonitrile]
- EC50 (Homo sapiens, PBMC): 531 nM

Molecule: Cc1nc(C)c(Cn2cnc(C(C)F)c(Oc3cc(C(F)F)cc(C#N)c3C)c2=O)c(=O)[nH]1 (single isomer, unassigned) [Example 29]
- EC50: 312 nM
